Assay type in all cases: biochemical
One experiment concerns the target human MAO-B (Homo sapiens (Human), UniProt P27338). As to the kind of experiment: Inhibitory effect on human MAO-B, MAO Detection Kit (Fluoro MAO). The settings on record: gene recombinant human MAO-B; fluorescence at 590 nm; 37° C., 2 hrs; read-out: MAO-B inhibition IC50. Here is the method:
(§1) The compounds of the present invention obtained in the Production Examples were examined for the inhibitory effect on human monoamineoxydase enzymes (MAO-A and MAO-B) by the following method.
(§2) Gene recombinant human MAO-A and MAO-B enzymes were purchased from Sigma Ltd. The human MAO-A and MAO-B activities were measured using MAO Detection Kit (Fluoro MAO, Cell Technology Inc.). Assay was performed in a 96-well plate. 1× Reaction buffer (40 μl) was added to each well, and 50 μl (5 mg/ml) of MAO-A or MAO-B was added. Then, test compound solutions (final concentration 1×10^−4-1×10^−10 mol/l) (10 μl) were added and the mixtures were incubated at 37° C. for 20 mins. Reaction cocktail (100 μl) was added, and the mixtures (final volume 200 μl) were incubated at 37° C. for 2 hrs. Thereafter, the fluorescence at 590 nm was detected with an excitation wavelength of 570 nm using a multispectro microplate reader (Varioskan, Thermo Fisher Scientific K.K.).

The next experiment concerns the target human MAO-A (Homo sapiens (Human), UniProt P21397). As to the kind of experiment: Inhibitory effect on human MAO-A, MAO Detection Kit (Fluoro MAO). The settings on record: gene recombinant human MAO-A; fluorescence at 590 nm; 37° C., 2 hrs; read-out: MAO-A inhibition IC50. Here is the method:
as §1, §2

The target in experiment [1] is human VAP-1 enzyme (SSAO) (Homo sapiens (Human), UniProt Q16853). As to the kind of experiment: Inhibitory effect on human VAP-1 enzyme (SSAO), radiochemical-enzyme assay using 14C-benzylamine. Conditions: human VAP-1 expressed in a cell, cell extract; 14C-benzylamine 1×10^−5 mol/L; 37° C., 2 hours. As to the method:
(§3) The compounds of the present invention obtained in Production Examples were examined for the inhibitory effect on human and rat VAP-1 enzyme (SSAO) by the following method.
(§4) The VAP-1 enzyme (SSAO) activity in both human and rat was measured by a radiochemical-enzyme assay using ^14C-benzylamine as an artificial substrate. Human or rat VAP-1 was cloned from the cDNA library and expressed in a cell. The cell extract was preincubated with a test compound solution (final concentration 1×10^−7-1×10^−10 mol/L) at room temperature for 20 minutes. Then, ^14C-benzylamine (final concentration 1×10^−5 mol/L) was added, and the mixture was incubated at a final volume of 200 μL at 37° C. for 2 hours. The enzyme reaction was stopped by addition of 2 mol/L (200 μL) citric acid. The oxidation product was extracted with 1 mL toluene/ethyl acetate (1:1), and the radioactivity thereof was measured by a liquid scintillation counter.

Another experiment deals with rat VAP-1 enzyme (SSAO) (Rattus norvegicus (Rat), UniProt O08590). As to the kind of experiment: Inhibitory effect on rat VAP-1 enzyme (SSAO), radiochemical-enzyme assay using 14C-benzylamine. Conditions: rat VAP-1 expressed in a cell, cell extract; 14C-benzylamine 1×10^−5 mol/L; 37° C., 2 hours. As to the method: as §3, §4

Structures can show the parent of a compound that is named as a salt.

For orientation: IC50 means the concentration at which inhibition is half-maximal.

Chain of human MAO-B (P27338 whole entry): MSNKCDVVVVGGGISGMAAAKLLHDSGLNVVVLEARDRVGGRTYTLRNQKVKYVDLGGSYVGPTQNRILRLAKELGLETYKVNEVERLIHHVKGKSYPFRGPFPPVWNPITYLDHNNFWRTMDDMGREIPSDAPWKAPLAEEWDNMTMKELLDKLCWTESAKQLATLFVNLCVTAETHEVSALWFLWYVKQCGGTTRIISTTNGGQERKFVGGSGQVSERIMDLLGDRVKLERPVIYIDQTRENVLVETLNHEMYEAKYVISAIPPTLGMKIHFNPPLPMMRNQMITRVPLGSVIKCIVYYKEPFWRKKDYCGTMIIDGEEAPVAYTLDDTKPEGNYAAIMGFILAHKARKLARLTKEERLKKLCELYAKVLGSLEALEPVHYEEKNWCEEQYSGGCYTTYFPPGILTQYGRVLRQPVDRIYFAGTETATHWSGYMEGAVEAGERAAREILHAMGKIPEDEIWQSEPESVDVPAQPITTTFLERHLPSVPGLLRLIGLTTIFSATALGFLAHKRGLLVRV
Chain of human VAP-1 enzyme (SSAO) (Q16853 whole entry): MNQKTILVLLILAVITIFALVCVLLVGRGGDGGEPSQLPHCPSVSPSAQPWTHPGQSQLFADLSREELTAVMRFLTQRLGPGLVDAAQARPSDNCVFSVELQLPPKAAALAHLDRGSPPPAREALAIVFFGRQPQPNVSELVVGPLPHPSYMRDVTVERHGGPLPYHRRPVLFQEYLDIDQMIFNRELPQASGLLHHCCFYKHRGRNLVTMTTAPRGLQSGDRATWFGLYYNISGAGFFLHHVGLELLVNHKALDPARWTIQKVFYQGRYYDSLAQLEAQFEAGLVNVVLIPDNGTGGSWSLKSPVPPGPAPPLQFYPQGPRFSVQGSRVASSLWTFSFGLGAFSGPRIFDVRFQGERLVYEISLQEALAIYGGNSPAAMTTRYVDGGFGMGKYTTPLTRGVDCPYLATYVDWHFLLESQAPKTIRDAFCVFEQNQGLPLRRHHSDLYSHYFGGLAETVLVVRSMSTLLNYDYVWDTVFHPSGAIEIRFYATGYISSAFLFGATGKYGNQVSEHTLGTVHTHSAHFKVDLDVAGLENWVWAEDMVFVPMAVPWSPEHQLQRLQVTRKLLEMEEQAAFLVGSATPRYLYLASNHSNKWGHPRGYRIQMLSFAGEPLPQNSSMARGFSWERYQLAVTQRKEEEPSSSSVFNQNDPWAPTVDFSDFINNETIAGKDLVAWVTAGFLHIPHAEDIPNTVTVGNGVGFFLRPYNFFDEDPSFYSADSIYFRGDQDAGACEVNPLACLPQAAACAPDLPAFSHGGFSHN
Chain of human MAO-A (P21397 whole entry): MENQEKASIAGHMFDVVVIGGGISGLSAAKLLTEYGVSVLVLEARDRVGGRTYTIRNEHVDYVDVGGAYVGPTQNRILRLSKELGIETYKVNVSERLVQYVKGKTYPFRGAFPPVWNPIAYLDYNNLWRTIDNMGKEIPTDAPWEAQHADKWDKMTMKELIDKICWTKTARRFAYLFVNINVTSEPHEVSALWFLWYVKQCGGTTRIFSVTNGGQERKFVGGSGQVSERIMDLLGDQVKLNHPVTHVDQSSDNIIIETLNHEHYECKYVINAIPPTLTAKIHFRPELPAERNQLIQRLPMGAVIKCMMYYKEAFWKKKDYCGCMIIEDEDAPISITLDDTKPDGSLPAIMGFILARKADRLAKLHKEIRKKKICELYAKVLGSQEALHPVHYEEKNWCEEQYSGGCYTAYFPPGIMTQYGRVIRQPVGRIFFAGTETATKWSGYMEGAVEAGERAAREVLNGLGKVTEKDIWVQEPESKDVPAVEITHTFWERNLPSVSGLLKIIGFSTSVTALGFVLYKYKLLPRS
Chain of rat VAP-1 enzyme (SSAO) (O08590 whole entry): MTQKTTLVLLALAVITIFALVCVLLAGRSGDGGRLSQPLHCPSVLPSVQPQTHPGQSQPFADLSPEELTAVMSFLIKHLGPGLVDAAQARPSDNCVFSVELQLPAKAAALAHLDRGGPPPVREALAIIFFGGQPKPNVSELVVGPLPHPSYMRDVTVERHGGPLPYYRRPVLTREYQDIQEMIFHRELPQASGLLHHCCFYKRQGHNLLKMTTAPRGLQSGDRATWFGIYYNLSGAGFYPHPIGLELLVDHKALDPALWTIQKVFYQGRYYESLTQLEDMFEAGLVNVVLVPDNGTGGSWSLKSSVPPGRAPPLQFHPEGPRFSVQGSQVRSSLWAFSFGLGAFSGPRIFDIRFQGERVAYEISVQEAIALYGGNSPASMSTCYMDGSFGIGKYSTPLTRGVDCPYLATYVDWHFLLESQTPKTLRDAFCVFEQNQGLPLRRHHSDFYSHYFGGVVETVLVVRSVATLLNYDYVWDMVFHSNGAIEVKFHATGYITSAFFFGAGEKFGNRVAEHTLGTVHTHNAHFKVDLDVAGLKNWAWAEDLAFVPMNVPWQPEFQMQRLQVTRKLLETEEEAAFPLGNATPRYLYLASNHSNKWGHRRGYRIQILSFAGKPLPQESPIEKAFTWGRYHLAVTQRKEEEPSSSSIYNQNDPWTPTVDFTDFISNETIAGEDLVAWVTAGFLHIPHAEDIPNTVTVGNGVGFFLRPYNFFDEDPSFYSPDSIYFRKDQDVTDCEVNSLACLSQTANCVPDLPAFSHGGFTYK

On to `CN1CCN(c2ccc(CCc3ccc(CC(=O)NN)cc3)cc2)CC1` [Production Example 35, 2-(4-{2-[4-(4-methylpiperazin-1-yl)phenyl]ethyl}phenyl)acetohydrazide trihydrochloride], for which the IC50 at human MAO-B and on human MAO-A was > 100000 nM in each case.

As to `NNC(=O)Cc1ccc(CCc2ccnc(N3CCNCC3)c2)cc1` [Production Example 105, 2-{4-[2-(2-piperazin-1-ylpyridin-4-yl)ethyl]phenyl}acetohydrazide tetrahydrochloride], the IC50 at human MAO-B was > 100000 nM; in experiment [1], 7.3 nM; on human MAO-A, > 100000 nM; at rat VAP-1 enzyme (SSAO), 7.2 nM.

For `CC(=O)N1CCN(c2ccc(CCc3ccc(CC(=O)NN)cc3)nc2)CC1` [Production Example 87, 2-(4-{2-[5-(4-acetylpiperazin-1-yl)pyridin-2-yl]ethyl}phenyl)acetohydrazide trihydrochloride], the IC50 at human MAO-B was > 100000 nM; in experiment [1], 3.2 nM; on human MAO-A it was > 100000 nM; against rat VAP-1 enzyme (SSAO), 1.4 nM.

In the case of `NNC(=O)Cc1ccc(CCc2cccc(N3CCNCC3)n2)cc1` [Production Example 51, 2-{4-[2-(6-piperazin-1-ylpyridin-2-yl)ethyl]phenyl}acetohydrazide tetrahydrochloride], the IC50 at human MAO-B is > 100000 nM; in experiment [1], 9.8 nM; at human MAO-A it was > 100000 nM; against rat VAP-1 enzyme (SSAO), 29.4 nM.

For `CC(=O)N1CCN(c2ccc(CCc3ccc(COC(=O)NN)cc3)nc2)CC1` [Production Example 108, 4-{2-[5-(4-acetylpiperazin-1-yl)pyridin-2-yl]ethyl}benzyl hydrazinecarboxylate trihydrochloride], the IC50 in experiment [1] was determined as 0.9 nM; at rat VAP-1 enzyme (SSAO), 0.8 nM.

Consider `CC(=O)N1CCN(c2ccc(CCc3ccc(CCOC(=O)NN)cc3)nc2)CC1` [Production Example 122, 2-(4-{2-[5-(4-acetylpiperazin-1-yl)pyridin-2-yl]ethyl}phenyl)ethyl hydrazinecarboxylate trihydrochloride], for which the IC50 is 6.6 nM in experiment [1] and 8 nM on rat VAP-1 enzyme (SSAO).

`CC(=O)N1CCN(c2ccc(CCc3ccc(CC(=O)NN)s3)nc2)CC1` [Production Example 120, 2-(5-{2-[5-(4-acetylpiperazin-1-yl)pyridin-2-yl]ethyl}thiophen-2-yl)acetohydrazide]: the IC50 in experiment [1] turned out to be 3.7 nM; at rat VAP-1 enzyme (SSAO), 0.6 nM.

As for `NNC(=O)Cc1ccc(CCc2csc(C3CCNCC3)n2)cc1` [Production Example 20, 2-{4-[2-(2-piperidin-4-yl-1,3-thiazol-4-yl)ethyl]phenyl}acetohydrazide dihydrochloride], the IC50 was found to be 23.3 nM in experiment [1] and 5.1 nM against rat VAP-1 enzyme (SSAO).

With `CC(=O)N1CCN(c2ccc(CCc3ccc(CNC(=O)NN)cc3)nc2)CC1` [Production Example 109, N-(4-{2-[5-(4-acetylpiperazin-1-yl)pyridin-2-yl]ethyl}benzyl)hydrazinecarboxamide trihydrochloride], the IC50 in experiment [1] is 3.7 nM; at rat VAP-1 enzyme (SSAO) it was 1.4 nM.

Regarding `CC(=O)N1CCN(c2ccc(CCc3ccc(CCNC(=O)NN)s3)nc2)CC1` [Production Example 117, N-[2-(5-{2-[5-(4-acetylpiperazin-1-yl)pyridin-2-yl]ethyl}thiophen-2-yl)ethyl]hydrazinecarboxamide], the IC50 in experiment [1] amounted to 18.7 nM; on rat VAP-1 enzyme (SSAO) it was 2.7 nM.

The values are drawn from patent publication US9603833B2, “Benzene or thiophene derivative and use thereof as VAP-1 inhibitor” (R-Tech Ueno, Ltd., priority 2008, dated 2017).
